Data from paper PMC6321136, “Combined In Vitro Studies and in Silico Target Fishing for the Evaluation of the Biological Activities of Diphylleia cymosa and Podophyllum hexandrum” (Molecules, 2018).

Experiments:
[1] = test system: Antagonist, peroxisome proliferator-activated receptor gamma (PPARg); design: method as in PubChem Bioassay AID 743191; details: ref PubChem Bioassay AID 743191; cited from earlier work
Cytotoxicity, A549 = test system: Cytotoxicity, A549; design: method as in PubChem Bioassay AID 371; details: ref PubChem Bioassay AID 371; cited from earlier work
[2] = test system: Cytotoxicity, Agonist, RXR; design: method as in PubChem Bioassay AID 1159529; details: ref PubChem Bioassay AID 1159529; cited from earlier work
[3] = test system: Cytotoxicity, Activate, aryl hydrocarbon receptor (AhR); design: method as in PubChem Bioassay AID 743086; details: ref PubChem Bioassay AID 743086; cited from earlier work
Angiogenesis model = test system: Angiogenesis model; design: method as in PubChem Bioassay AID 1117340; details: ref PubChem Bioassay AID 1117340; cited from earlier work
[4] = test system: Activators, heat shock response; design: method as in PubChem Bioassay AID 743210; details: ref PubChem Bioassay AID 743210; cited from earlier work
[5] = test system: Agonist, peroxisome proliferator-activated receptor delta (PPARd); design: method as in PubChem Bioassay AID 743227; details: ref PubChem Bioassay AID 743227; cited from earlier work
[6] = test system: Antagonist, androgen receptor (AR); design: method as in PubChem Bioassay AID 1259243; details: ref PubChem Bioassay AID 1259243; cited from earlier work
[7] = test system: Agonist, thyroid receptor (TR); design: method as in PubChem Bioassay AID 743066; details: ref PubChem Bioassay AID 743066; cited from earlier work
[8] = test system: Antagonist, vitamin D receptor (VDR); design: method as in PubChem Bioassay AID 743242; details: ref PubChem Bioassay AID 743242; cited from earlier work
[9] = test system: Cytotoxicity, Agonist, hypoxia; design: method as in PubChem Bioassay AID 1224844; details: ref PubChem Bioassay AID 1224844; cited from earlier work
Agonist, AP-1 = test system: Agonist, AP-1; design: method as in PubChem Bioassay AID 1159528; details: ref PubChem Bioassay AID 1159528; cited from earlier work
[10] = DPPH radical scavenger activity
Procedure: The evaluation of the antioxidant activity using the 2,2-diphenyl-1-picrylhydrazyl radical (DPPH) was performed according to the method proposed by Mensor et al., with adaptations. The samples were dissolved in MeOH at concentrations ranging from 1.0 to 200 μg/mL. A portion of 250 μL of each sample was added to a 96-well microplate. MeOH and pyrogallol (50 µg/mL) were employed as negative and positive controls, respectively. Then, 100 μL of either MeOH (blank wells) or DPPH solution (120 μg/mL, reaction wells) was added to the microplate. The reading was performed on a microplate reader (EL808IU-Biotek model, Biotek, Winooski, VT, USA), at 5 min intervals for a total of 45 min, at 515 nm. The percentage of radical scavenging activity (%RSA) was calculated using the following equation: % RSA = ((AC − AS)/AC) × 100, where AC is the absorbance of control and AS is the absorbance of samples taken at 35 min. The results were expressed in EC50 (effective concentration for 50% capture of the radicals) determined by non-linear regression using GraphPad Prism, version 6.0.

Agonist, Histone H2A.x = test system: Agonist, Histone H2A.x; design: method as in PubChem Bioassay AID 1224896; details: ref PubChem Bioassay AID 1224896; cited from earlier work
[11] = test system: Antagonist, constitutive androstane receptor (CAR); design: method as in PubChem Bioassay AID 1224838; details: ref PubChem Bioassay AID 1224838; cited from earlier work
[12] = test system: Antagonist, retinoic acid receptor (RAR); design: method as in PubChem Bioassay AID 1159555; details: ref PubChem Bioassay AID 1159555; cited from earlier work
Anti-Inflammatory model = test system: Anti-Inflammatory model; design: method as in PubChem Bioassay AID 1309; details: ref PubChem Bioassay AID 1309; cited from earlier work
[13] = test system: Antagonist, peroxisome proliferator-activated receptor delta (PPARd); design: method as in PubChem Bioassay AID 743215; details: ref PubChem Bioassay AID 743215; cited from earlier work

COc1cc([C@@H]2c3cc4c(cc3[C@H](O)[C@H]3COC(=O)[C@H]23)OCO4)cc(OC)c1OC [Podophyllotoxin, podophyllotoxin]
Active: Exper. Activity (Cytotoxicity, A549) | Exper. Activity (Angiogenesis model) | Exper. Activity [8] | Exper. Activity (Agonist, AP-1) | Exper. Activity [11] | Exper. Activity [12] | Exper. Activity (Anti-Inflammatory model)
>200 µg/mL: Antioxidant Activity (IC50-µg/mL) DPPH Radical Sequestration [10]
Inactive: Exper. Activity [1] | Exper. Activity [2] | Exper. Activity [3] | Exper. Activity [4] | Exper. Activity [5] | Exper. Activity [6] | Exper. Activity [7] | Exper. Activity [9] | Exper. Activity (Agonist, Histone H2A.x) | Exper. Activity [13]
